For the assay, the target named is MNK2a (Homo sapiens (Human), UniProt Q9HBH9). The assay is described as follows: MNK2a in vitro kinase assay (Assay 2), ADP-Glo. The settings on record: read-out: MNK2 IC50. Format: biochemical. The method, then:
B. MNK2a In vitro Kinase Assay (Assay 2)
ASSAY SETUP: The inhibition of kinase activity of MNK2a was assessed using pre-activated GST-MNK2a. The white, 384-well OptiPlate F plates were purchased from PerkinElmer. The ADP-Glo Kinase Assay (including ultra pure ATP) was purchased from Promega (V9103). Activated MNK2a was obtained as described in WO2011/104340. […] ID No. 5 of WO 2011/104340 by the C-terminal —CONH2 group, was purchased from Thermo Fisher Scientific. All other materials were of highest grade commercially available. Compounds are tested in either serial dilutions or single dose concentrations. The compound stock solutions are 10 mM in 100% DMSO The serial compound dilutions are prepared in 100% DMSO followed by 1:27.3 intermediate dilution in assay buffer. The final DMSO concentration in assay will be <3%. In the 384-well plates 3 μl of test compound from the intermediate dilution is mixed with 4 μl of the activated MNK2 enzyme (final concentration of 10 nM) and 4 μl of the peptide (final concentration of 25 μM)/ultra pure ATP (final concentration of 20 μM), all dissolved in assay buffer. This step is followed by an incubation time of 90 min, then 10 μl of ADP Glo reagent are added, followed by 40 min of incubation. Then 20 μl of kinase detection reagent are admixed. The plates are sealed and after an incubation period of 30 min, the luminescence signal is measured in an Envision reader to determine the amount of produced ADP. All incubation steps are performed at room temperature. The assay buffer consists of 20 mM HEPES, 2 mM DTT, 0.01% BSA, 20 mM MgCl2 and 0.1% Pluronic F-127.
The luminescent signal generated is proportional to the ADP concentration produced and is correlated with activated MNK2 activity. The analysis of the data is performed by the calculation of the percentage of ATP consumption of activated MNK2 in the presence of the test compound compared to the consumption of ATP in the presence of activated MNK2 without compound. (RLU(sample)−RLU(low control))*100/(RLU(high value)−RLU(low control)) [RLU=relative luminescence units]
[…] values based on dose response curves are calculated with the AssayExplorer software.
(ADP-Glo turns the ADP formed in a reaction into a luminescent signal.)
Sequence of MNK2a (Q9HBH9 whole entry): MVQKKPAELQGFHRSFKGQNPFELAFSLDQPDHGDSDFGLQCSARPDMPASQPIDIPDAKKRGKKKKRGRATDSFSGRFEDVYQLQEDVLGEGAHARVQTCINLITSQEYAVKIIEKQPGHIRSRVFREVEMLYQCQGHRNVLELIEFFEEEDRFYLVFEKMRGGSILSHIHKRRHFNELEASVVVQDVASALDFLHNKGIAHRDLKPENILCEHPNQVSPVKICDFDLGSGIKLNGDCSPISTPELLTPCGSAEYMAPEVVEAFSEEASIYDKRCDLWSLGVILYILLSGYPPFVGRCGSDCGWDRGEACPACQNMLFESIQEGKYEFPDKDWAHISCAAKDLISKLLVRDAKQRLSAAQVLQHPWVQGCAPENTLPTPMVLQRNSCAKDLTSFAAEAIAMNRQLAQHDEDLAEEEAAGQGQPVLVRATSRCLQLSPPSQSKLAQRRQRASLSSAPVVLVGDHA
The term IC50 denotes the concentration that gives 50% inhibition. Regarding `Cc1cc(N=S(C)(C)=O)cc2ncnc(Nc3ccc(F)cc3OC(C)C(F)(F)F)c12` (racemic) [Example 1.013], the half-inhibitory concentration (IC50) is 2 nM.
The same measure for `Cc1cc(N=S(C)(C)=O)cc2ncnc(Nc3ccc(C#N)cc3OC(C)C(F)(F)F)c12` (stereo not drawn) [Example 1.001]: 17 nM; for `CC(Oc1ncccc1Nc1ncnc2cc(N=S(C)(C)=O)cc(F)c12)C(F)(F)F` (stereo not drawn) [Example 1.007]: 8 nM; for `Cc1cc(C(Oc2cc(F)ccc2Nc2ncnc3cc(N=S(C)(C)=O)cc(C)c23)C(F)(F)F)on1` (stereo not drawn) [Example 1.010]: 17 nM.
Under `Cc1cc(N=S(C)(C)=O)cc2ncnc(Nc3cccnc3OC(C)C(F)(F)F)c12` (stereo not drawn) [Example 1.017] stands 12 nM; under `Cc1cc(N=S2(=O)CCCC2)cc2ncnc(Nc3ccc(F)cc3OC(C)C(C)(C)C#N)c12` (stereo not drawn) [Example 2.007], 3 nM.
In the case of `Cc1cc(N=S(C)(C)=O)cc2ncnc(Nc3cccnc3O[C@H](C)C(=O)NCC(F)(F)F)c12` [Example 2.013], the half-maximal inhibitory concentration (IC50) came out at 2 nM.
Under `CC(C)Oc1ncccc1Nc1ncnc2cc(N=S(C)(C)=O)cc(F)c12` [Example 2.015] stands 190 nM; under `Cc1cc([C@@H](C)Oc2cc(F)ccc2Nc2ncnc3cc(N=S4(=O)CCNCC4)cc(C)c23)on1` [Example 2.016], 1 nM.
Regarding `Cc1cc(N=S2(=O)CC[C@H](N)C2)cc2ncnc(Nc3ccc(F)cc3O[C@H](C)C(=O)NCC(F)(F)F)c12` (stereo partly drawn) [Example 2.019], the half-inhibitory concentration (IC50) was 1 nM.
As to `Cc1cc(N=S2(=O)CC[C@@H](N)C2)cc2ncnc(Nc3ccc(F)cc3O[C@H](C)C(=O)NCC(F)(F)F)c12` (stereo partly drawn) [Example 2.020], the IC50 was found to be 3 nM.
As for `Cc1cc(N=S2(=O)CCC2)cc2ncnc(Nc3cccnc3O[C@H](C)C(=O)NCC(F)F)c12` [Example 2.021], the half-maximal inhibitory concentration (IC50) came to 2 nM.
With `Cc1cc(N=S2(=O)CCCC2)cc2ncnc(Nc3cccnc3O[C@H](C)C(=O)NCC(F)(F)F)c12` [Example 2.022], the 50% inhibitory concentration (IC50) was 2 nM.
Under `Cc1cc(N=S2(=O)CCC(O)C2)cc2ncnc(Nc3ccc(F)cc3O[C@H](C)C(=O)NCC(F)(F)F)c12` (stereo partly drawn) [Example 2.023] stands 2 nM.
Under `C[C@@H](Oc1cc(F)ccc1Nc1ncnc2cc(N=S3(=O)CC4(COC4)C3)cc(Cl)c12)C(=O)NCC(F)(F)F` [Example 2.024] stands 3 nM.
Consider `C[C@@H](Oc1cc(F)ccc1Nc1ncnc2cc(N=S(C)(=O)C3CCOCC3)cc(F)c12)C(=O)NCC(F)(F)F` (stereo partly drawn) [Example 2.025], for which the IC50 was 7 nM.
Take `C[C@@H](Oc1cc(F)ccc1Nc1ncnc2cc(N=S3(=O)CC(C)(C)C3)cc(F)c12)C(=O)NCC#N` [Example 2.026]: the IC50 came to 1 nM.
In the case of `Cc1cc(N=S(C)(=O)C2CCNC2)cc2ncnc(Nc3ccc(F)cc3O[C@H](C)C(=O)NCC(F)(F)F)c12` (stereo partly drawn) [Example 2.028], the IC50 amounted to 3 nM.
For the molecule `Cc1cc(N=S(C)(=O)C2CCOCC2)cc2ncnc(Nc3ccc(F)cc3O[C@H](C)C(=O)NCC(F)(F)F)c12` (stereo partly drawn) [Example 2.029], the 50% inhibitory concentration (IC50) was 4 nM.
On to `COc1cc(N=S(C)(=O)C2CC2)cc2ncnc(Nc3ccc(F)cc3O[C@H](C)C(=O)NCC(F)(F)F)c12` (stereo partly drawn) [Example 2.030], for which the 50% inhibitory concentration (IC50) stood at 4 nM.
As to `C[C@@H](Oc1ncccc1Nc1ncnc2cc(N=S(C)(C)=O)cc(F)c12)C(=O)NCC(F)(F)F` [Example 2.031], the IC50 stood at 10 nM.
As for `COC(=O)N1CC2(C1)CS(=O)(=Nc1cc(C)c3c(Nc4ccc(F)cc4O[C@H](C)C(=O)NCC(F)(F)F)ncnc3c1)C2` [Example 2.032], the concentration for half-maximal inhibition (IC50) was determined as 1 nM.
With `C[C@@H](Oc1cc(F)ccc1Nc1ncnc2cc(N=S3(=O)CCCC3)cc(F)c12)C(=O)NCC#N` [Example 2.033], the IC50 turned out to be 4 nM.
Turning to `Cc1cc(N=S2(=O)CC(C)(C)C2)cc2ncnc(Nc3ccc(Cl)cc3O[C@H](C)C(=O)N[C@@H](C)C(F)(F)F)c12` [Example 2.034], the IC50 amounted to 1 nM.
On to `Cc1cc(N=S2(=O)CCC(C)C2)cc2ncnc(Nc3ccc(F)cc3O[C@H](C)C(=O)NCC(F)(F)F)c12` (stereo partly drawn) [Example 2.035], for which the 50% inhibitory concentration (IC50) turned out to be 2 nM.
Turning to `Cc1cc(N=S2(=O)CCC2)cc2ncnc(Nc3ccc(F)cc3O[C@H](CO)CF)c12` [Example 2.036], the IC50 is 4 nM.
As to `C[C@@H](Oc1cc(F)ccc1Nc1ncnc2cc(N=S3(=O)CC(C)(C)C3)cc(Cl)c12)C(=O)NCC(F)(F)F` [Example 2.037], the 50% inhibitory concentration (IC50) was 2 nM.
In the case of `Cc1cc(N=S2(=O)CC3(COC3)C2)cc2ncnc(Nc3ccc(F)cc3O[C@H](C)C(=O)NCC(F)(F)F)c12` [Example 2.038], the IC50 was determined as 3 nM.
The same measure for `Cc1cc(N=S2(=O)CCC2)cc2ncnc(Nc3cccnc3O[C@H](C)C(=O)NCC(F)(F)F)c12` [Example 2.039]: 3 nM; for `C[C@@H](Oc1cc(F)ccc1Nc1ncnc2cc(N=S(C)(=O)C(C)(C)C)cc(F)c12)C(=O)NCC(F)(F)F` (stereo partly drawn) [Example 2.040]: 18 nM.
As to `Cc1cc(N=S2(=O)CCC2)cc2ncnc(Nc3ccc(F)cc3O[C@H](C)C(=O)NC(C(F)(F)F)C(F)(F)F)c12` [Example 2.041], the concentration for half-maximal inhibition (IC50) came out at 1 nM.
Turning to `Cc1cc(N=S(C)(=O)C2CC2)cc2ncnc(Nc3ccc(F)cc3O[C@H](C)C(=O)NCC(F)(F)F)c12` (stereo partly drawn) [Example 2.042], the half-inhibitory concentration (IC50) came to 5 nM.
For the molecule `Cc1cc(N=S2(=O)CCC2)cc2ncnc(Nc3ccc(F)cc3O[C@H](CO)C(F)(F)F)c12` [Example 2.043], the IC50 was 2 nM.
On to `Cc1cc(N=S2(=O)CC(C)(C)C2)cc2ncnc(Nc3ccc(F)cc3O[C@H](C)C(=O)NCC(F)(F)F)c12` [Example 2.044], for which the IC50 was found to be 1 nM.
Under `Cc1cc(N=S2(=O)CC3(COC3)C2)cc2ncnc(Nc3ccc(Cl)cc3O[C@H](C)C(=O)N[C@@H](C)C(F)(F)F)c12` [Example 2.045] stands 1 nM.
For the molecule `Cc1cc(N=S(C)(=O)C(C)C)cc2ncnc(Nc3ccc(F)cc3O[C@H](C)C(=O)NCC(F)(F)F)c12` (stereo partly drawn) [Example 2.046], the IC50 came to 3 nM.
For the molecule `COc1cc(N=S2(=O)CCC2)cc2ncnc(Nc3ccc(F)cc3O[C@H](C)C(=O)NCC(F)(F)F)c12` [Example 2.047], the IC50 was 3 nM.
As to `Cc1cc(N=S(C)(C)=O)cc2ncnc(Nc3ccc(F)cc3OC(C)Cn3ccnc3)c12` (stereo not drawn) [Example 3.004], the 50% inhibitory concentration (IC50) stood at 17 nM.
Turning to `Cc1cc(N=S(C)(C)=O)cc2ncnc(Nc3ccc(F)cc3OCC#N)c12` [Example 3.005], the IC50 was 1 nM.
As for `Cc1cc(N=S(C)(C)=O)cc2ncnc(Nc3ccc(F)cc3OC(C)C3CCCO3)c12` (stereo not drawn) [Example 3.010], the IC50 worked out at 23 nM.
On to `COc1cc(N=S2(=O)CCCC2)cc2ncnc(Nc3ccc(F)cc3O[C@H](C)C(=O)NCC(F)(F)F)c12` [Example 3.011], for which the IC50 was found to be 2 nM.
Turning to `CCC(Oc1cc(F)ccc1Nc1ncnc2cc(N=S(C)(C)=O)cc(C)c12)C(=O)OC` (stereo not drawn) [Example 3.017], the IC50 came out at 138 nM.
Take `Cc1cc(N=S(C)(C)=O)cc2ncnc(Nc3ccc(F)cc3OC(C)c3ccnn3C)c12` (stereo not drawn) [Example 3.023]: the IC50 came to 42 nM.
Take `Cc1cc(N=S(C)(C)=O)cc2ncnc(Nc3ccc(F)cc3O[C@@H](C)CN)c12` [Example 3.024]: the IC50 worked out at 16 nM.
Turning to `Cc1cc(N=S(C)(C)=O)cc2ncnc(Nc3ccc(F)cc3OC(C)Cn3cccn3)c12` (stereo not drawn) [Example 3.034], the IC50 was 58 nM.
In the case of `Cc1noc(C(C)Oc2cc(F)ccc2Nc2ncnc3cc(N=S(C)(C)=O)cc(C)c23)n1` (stereo not drawn) [Example 3.036], the IC50 came to 9 nM.
As for `Cc1cc(N=S(C)(C)=O)cc2ncnc(Nc3ccc(F)cc3OCC3CNC(=O)C3)c12` (stereo not drawn) [Example 3.037], the IC50 was 3 nM.
With `COc1cc(N=S(C)(C)=O)cc2ncnc(Nc3ccc(F)cc3O[C@H](C)C(=O)NCC(F)(F)F)c12` [Example 3.040], the half-inhibitory concentration (IC50) turned out to be 6 nM.
Under `Cc1nnc(C(C)Oc2cc(F)ccc2Nc2ncnc3cc(N=S(C)(C)=O)cc(C)c23)o1` (stereo not drawn) [Example 3.041] stands 33 nM.
With `Cc1cc(N=S(C)(C)=O)cc2ncnc(Nc3ccc(F)cc3O[C@H](C)C(=O)N[C@H](C)C(F)(F)F)c12` [Example 3.051], the IC50 stood at 3 nM.
The same measure for `Cc1cc(N=S2(=O)CCC2)cc2ncnc(Nc3ccc(F)cc3O[C@H](C)C(=O)N(CC(F)(F)F)CC(F)(F)F)c12` [Example 3.052]: 3 nM; for `Cc1cc(N=S(C)(C)=O)cc2ncnc(Nc3ccc(F)cc3O[C@H](C)C(=O)N(CC(F)F)CC(F)F)c12` [Example 3.053]: 2 nM; for `Cc1cc(N=S(C)(C)=O)cc2ncnc(Nc3ccc(F)cc3O[C@H](C)C(=O)N(CC(F)(F)F)CC(F)(F)F)c12` [Example 3.055]: 3 nM.
Take `Cc1cc(N=S2(=O)CCCC2)cc2ncnc(Nc3ccc(F)cc3O[C@H](C)C(=O)N3CC[S+]([O-])CC3)c12` [Example 4.004]: the IC50 turned out to be 6 nM.

For the origin of these results see US9139577B2, “Sulfoximine substituted quinazolines for pharmaceutical compositions” (Boehringer Ingelheim International GmbH, priority 2013, dated 2015).
